According to PubChem BioAssay (NCI):
Values joined by “and” are separate entries in the source; they are usually repeats but may differ in a detail not shown here. Equal entries are not always repeated.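 All cell lines were grown in 96-well plates and treated with compound for 48 hours. Here, GI50 denotes the concentration required for 50% inhibition of growth. TGI denotes the concentration required for complete inhibition of growth.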

Columns and labels:
Test in all cases: growth of human tumour cells (NCI), 48 h
[1] = system: MCF7 breast
[2] = system: OVCAR-4 ovarian
[3] = system: 786-0 renal
[4] = system: CAKI-1 renal
[5] = system: SK-OV-3 ovarian
[6] = system: SK-MEL-2 melanoma
[7] = system: A498 renal
[8] = system: SF-295 CNS
[9] = system: CCRF-CEM leukemia
[10] = system: OVCAR-3 ovarian

SMILES	TGI [1] [µM]	TGI [2] [µM]	TGI [3] [µM]	TGI [4] [µM]	TGI [5] [µM]	TGI [6] [µM]	TGI [7] [µM]	TGI [8] [µM]	TGI [9] [µM]	TGI [10]	GI50 [6] [µM]	GI50 [7]
C=CCCCN(C(=O)c1ccccc1)c1ccc(C(=O)OC)o1	> 100	> 100	> 100	> 100	> 100	> 100	> 100	> 100	–	–	–	–
COc1ccc(Cn2c(=O)c(OS(=O)(=O)C(F)(F)F)c(C)c3cc4ccccc4cc32)cc1	> 100	> 100	> 100	> 100	> 100	> 100	–	> 100	> 100	> 100 µM	–	–
CC(=O)OC1C2CCC3CC2C2(SCCS2)C31 (centres undefined)	> 100	> 100	> 100	–	> 100	> 100	> 100	> 100	–	> 100 µM	–	–
Cc1ccc(N=Nc2c(O)ccc3ccccc23)c(C)c1	–	> 100	> 100	> 100	> 100	> 100	> 100	> 100	–	> 100 µM	–	–
CC(C)(C)N=C1C(=O)C2(C)CCC1C2(C)C (centres undefined)	> 100	> 100	> 100	> 100	> 100	> 100	41.2	> 100	–	> 100 µM	–	–
CC(=O)N1CCOC12N=NC(C)(C)O2 (centres undefined)	> 100	> 100	> 100	> 100	> 100	> 100	> 100	> 100	–	> 100 µM	–	–
CCCCn1c(-c2ccccc2)cs/c1=N\NC(=O)Cn1c(C)nc2ccccc21	–	> 100	> 100	> 100	> 100	> 100	> 100	> 100	99.4	> 100 µM	–	–
CCOC(=O)/C=C(/C(=O)OCC)n1cc(C)c(=O)n(Cc2cn(CCCCOC(C)=O)nn2)c1=O	42.2	39.5	> 100	6.46	> 100	45.1	–	> 100	2.31	33.4 µM	–	–
COc1ccc(NCn2nc(CCCCCCCCc3nn(CNc4ccc(OC)cc4)c(=S)o3)oc2=S)cc1	> 100	> 100	> 100	> 100	> 100	> 100	> 100	> 100	–	–	–	–
COc1cc(/C=C2\N=C(c3ccccc3)N(c3cc4cc(Sc5ccccc5)ccc4[nH]3)C2=O)ccc1O	> 50	> 50	> 50	> 50	–	–	–	–	> 50	–	–	–
O=C(O)C12C=CC(C1)c1ccccc12 (centres undefined)	–	> 100	> 100	> 100	> 100	–	> 100	> 100	> 100	> 100 µM	–	–
CC(C)(C1=NC(C(C)(C)C)CO1)C1=N[C@@H](C(C)(C)C)CO1 (some centres undefined)	–	> 100	> 100	–	> 100	> 100	–	> 100	> 100	> 100 µM	–	–
CCOC(=O)C1=C(N2CCCC2)C(=O)C(C(=O)OCC)C1 (centres undefined)	> 100	> 100	> 100	> 100	> 100	> 100	> 100	> 100	–	> 100 µM	–	–
Cc1c2cc[n+](C)cc2c(C)c2c1[nH]c1ccc(OCC(F)(F)F)cc12	–	> 100	> 100	> 64.7	> 100	> 100	> 100	2.22	> 100	25 µM and > 100 µM	5.9	47 µM and > 100 µM
c1ccc(C2N=C(c3ccccn3)C(c3ccccn3)=NC2c2ccccc2)cc1 (centres undefined)	–	> 100	> 100	> 100	> 100	> 100	> 100	> 100	> 100	> 100 µM	–	–
C=C1C(=O)OC2C[C@@]3(C)CCCC(=C)C3CC12 (some centres undefined)	–	26.6	–	19.4	33.7	12.7	19.2	23.6	> 100	22.6 µM	–	–
O=C(NNC(=O)c1ccc(Cl)cc1NC(=O)C12CC3CC(CC(C3)C1)C2)c1ccc(Cl)cc1	87.5	> 100	56.1	73.6	60.3	–	–	57	62.5	58.3 µM	–	–
COc1ccc(/C=C/C(=O)c2cc(CN(C)C)c(O)c(CN(C)C)c2)cc1	> 100	–	> 100	> 100	–	–	60.3	91.1	> 100	56 µM	–	–
